Holding throughout (assay type): functional, cell-based
Assay [1] has as its system MCF7. Put plainly: Cytotoxicity against human MCF7 cells assessed as reduction in cell viability measured after 48 hrs by MTT assay. Conditions: for IC50: MCF7, 48 h. Background: Formazan colour is commonly taken as a measure of viable cells.
Assay [2] relates to SW480. The experiment in a line: Cytotoxicity against human SW480 cells assessed as reduction in cell viability measured after 48 hrs by MTT assay. Conditions: for IC50: SW480, 48 h.
Assay [3] deals with A549. The experiment in a line: Cytotoxicity against human A549 cells assessed as reduction in cell viability measured after 48 hrs by MTT assay. Conditions: for IC50: A549, 48 h.
The test system of assay [4] is HL-60. Put plainly: Cytotoxicity against human HL-60 cells assessed as reduction in cell viability measured after 48 hrs by MTT assay. Conditions: for IC50: HL-60, 48 h.

SMILES strings stand for the structures. Active and inactive are the calls of the source. No cut-off for these calls is given here.

As usually defined, the IC50 is the concentration that gives 50% inhibition. `CC(=O)O[C@@H]1[C@H]2[C@@H]3[C@@H](OC(C)=O)C(=O)[C@@]4(O)C[C@@H]5O[C@H]5[C@H](OC(=O)CC(C)C)[C@]4(C)[C@H]3C[C@H](OC(C)=O)[C@]2(C)[C@@H]2[C@@H]1[C@]1(C)C(=C[C@H]2C)OC(=O)C1(C)O` (stereo partly specified): the IC50 in assay [1] was above 10 µM; in assay [2], above 10 µM; in assay [3], 8.3 µM; in assay [4] it was above 10 µM.
Consider `CC(=O)O[C@H]1C(=O)[C@@]2(C)[C@H]([C@H](OC(=O)c3ccccc3)[C@]3(O)C[C@H](OC(=O)[C@H](O)[C@@H](NC(=O)c4ccccc4)c4ccccc4)C(C)=C1C3(C)C)[C@]1(OC(C)=O)CO[C@@H]1C[C@@H]2O` [PACLITAXEL], for which the IC50 in assay [1], in assay [2], in assay [3] and in assay [4] was below 0.008 µM each time.
Take `CC(=O)O[C@H]1C[C@H]2[C@@H]([C@@H]3O[C@@H]3[C@@]3(O)C[C@@H]4O[C@@H]4[C@H](OC(C)=O)[C@]23C)[C@@H]2C[C@H]3[C@H](CO)CC(=O)[C@@H](C)[C@@H]3[C@@]12C`: the result in assay [1], in assay [2], in assay [3] and in assay [4] was inactive.
Turning to `CC(=O)O[C@H]1C[C@H]2[C@@H](C(=O)[C@H](O)[C@@]3(O)C[C@@H]4O[C@@H]4[C@H](OC(C)=O)[C@]23C)[C@@H]2C(=O)[C@H]3[C@H](C)[C@@H](O)C[C@@H](C)[C@@H]3[C@@]12C`, the result in assay [1], in assay [2], in assay [3] and in assay [4] was inactive.
As for `CC(=O)O[C@H]1[C@H]2[C@H]([C@@H]3[C@H]4OC(C)(O)[C@]5(C)[C@H]4[C@H]([C@H](C)C(=O)[C@H]5O)[C@@]3(C)[C@H]1OC(C)=O)[C@@H](OC(C)=O)C(=O)[C@H]1C[C@@H]3O[C@H]3[C@H](OC(C)=O)[C@]21C` (stereo partly specified), the IC50 was above 10 µM in assay [1], above 10 µM in assay [2], 7.5 µM in assay [3] and above 10 µM in assay [4].
`CC(=O)O[C@H]1C[C@H]2[C@H]([C@@H]3[C@@H](O)[C@@H]4[C@H]([C@H](C)C=C5OC(=O)C(C)(O)[C@@]54C)[C@]31C)[C@@H](O)C(=O)[C@H]1C[C@@H]3O[C@H]3[C@H](OC(=O)CC(C)C)[C@@]12C` (stereo partly specified): the IC50 in assay [1] is 6.9 µM; in assay [2], above 10 µM; in assay [3], 2.8 µM; in assay [4], 1.6 µM.
As to `CC(=O)O[C@H]1C[C@H]2[C@@H](C(=O)[C@H](O)[C@@]3(O)C[C@@H]4O[C@@H]4[C@H](OC(C)=O)[C@]23C)[C@@H]2[C@H](O)[C@@H]3[C@H]([C@H](C)CC(=O)[C@H]3C)[C@]21C`, the outcome in assay [1], in assay [2], in assay [3] and in assay [4] was inactive.
Turning to `CC(=O)O[C@H]1[C@H]2[C@H]([C@@H]3[C@@H](O)C4=C(C)C(=O)[C@@H](O)[C@@H](C)[C@@H]4[C@@]3(C)[C@H]1OC(C)=O)[C@@H](O)C(=O)[C@H]1C[C@@H]3O[C@@H]3[C@H](OC(C)=O)[C@]21C`, the result in assay [1], in assay [2], in assay [3] and in assay [4] was inactive.
As for `CC(=O)O[C@@H]1[C@H]2[C@H]3[C@H]([C@H](O)[C@H](OC(C)=O)[C@]2(C)[C@H]2[C@H](C)[C@H](OC(C)=O)[C@@H]4OC(=O)C(C)(O)[C@]4(C)[C@H]12)[C@]1(C)[C@H](C[C@@H]2O[C@H]2[C@@H]1OC(C)=O)C(=O)[C@@H]3O` (stereo partly specified), the IC50 in assay [1] was above 10 µM; in assay [2], above 10 µM; in assay [3], 7.3 µM; in assay [4], above 10 µM.
